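Five concentrations, 48 hours, 96-well plates. TGI: total growth inhibition.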
Key:
Assay in all cases: NCI tumour cell line growth inhibition, 48 h
SF-295 CNS = system: SF-295 CNS
COLO 205 colon = system: COLO 205 colon
TK-10 renal = system: TK-10 renal
MDA-N = system: MDA-N
U251 CNS = system: U251 CNS
SK-MEL-5 melanoma = system: SK-MEL-5 melanoma
UACC-62 melanoma = system: UACC-62 melanoma
SNB-75 CNS = system: SNB-75 CNS
HCC-2998 colon = system: HCC-2998 colon
MALME-3M melanoma = system: MALME-3M melanoma
786-0 renal = system: 786-0 renal
MDA-MB-435 = system: MDA-MB-435
T-47D breast = system: T-47D breast
RXF 393 renal = system: RXF 393 renal
HOP-92 NSCLC = system: HOP-92 NSCLC
SF-539 CNS = system: SF-539 CNS
SF-268 CNS = system: SF-268 CNS
SN12C renal = system: SN12C renal
RPMI-8226 leukemia = system: RPMI-8226 leukemia
M14 melanoma = system: M14 melanoma
IGROV1 ovarian = system: IGROV1 ovarian
DU-145 prostate = system: DU-145 prostate
PC-3 prostate = system: PC-3 prostate
HT29 colon = system: HT29 colon
CAKI-1 renal = system: CAKI-1 renal
A498 renal = system: A498 renal
CCRF-CEM leukemia = system: CCRF-CEM leukemia
UACC-257 melanoma = system: UACC-257 melanoma
A549 NSCLC = system: A549 NSCLC
MCF7 breast = system: MCF7 breast
SK-MEL-2 melanoma = system: SK-MEL-2 melanoma
OVCAR-8 ovarian = system: OVCAR-8 ovarian
BT-549 breast = system: BT-549 breast
K-562 leukemia = system: K-562 leukemia
SK-MEL-28 melanoma = system: SK-MEL-28 melanoma
NCI-H226 lung = system: NCI-H226 lung
MOLT-4 leukemia = system: MOLT-4 leukemia
NCI-H23 lung = system: NCI-H23 lung
HL-60(TB) leukemia = system: HL-60(TB) leukemia
OVCAR-5 ovarian = system: OVCAR-5 ovarian
KM12 colon = system: KM12 colon
SW-620 colon = system: SW-620 colon
NCI-H460 lung = system: NCI-H460 lung
NCI-H522 lung = system: NCI-H522 lung
HCT-15 colon = system: HCT-15 colon
NCI/ADR-RES ovarian = system: NCI/ADR-RES ovarian
OVCAR-4 ovarian = system: OVCAR-4 ovarian
SNB-19 CNS = system: SNB-19 CNS
HCT-116 colon = system: HCT-116 colon
MDA-MB-231 breast = system: MDA-MB-231 breast
UO-31 renal = system: UO-31 renal
ACHN renal = system: ACHN renal
SR leukemia = system: SR leukemia
SK-OV-3 ovarian = system: SK-OV-3 ovarian
EKVX NSCLC = system: EKVX NSCLC
HOP-62 NSCLC = system: HOP-62 NSCLC
OVCAR-3 ovarian = system: OVCAR-3 ovarian

With `CCN(CC)CCCNc1n[n+]([O-])c2ccccc2[n+]1[O-]` the TGI (SF-295 CNS) was 49.3 µM, the TGI (COLO 205 colon) was 40.1 µM and the TGI (TK-10 renal) was 39 µM. The TGI (MDA-N) was greater than 100 µM, the TGI (U251 CNS) was greater than 100 µM and the TGI (SK-MEL-5 melanoma) was 3.54 µM. It also gave a TGI (UACC-62 melanoma) of 26 µM, a TGI (SNB-75 CNS) of 77.1 µM and a TGI (HCC-2998 colon) of 15.7 µM. The TGI (MALME-3M melanoma) was 25.3 µM, the TGI (786-0 renal) was 33.4 µM and the TGI (MDA-MB-435) was greater than 100 µM. It also gave a TGI (T-47D breast) of 68.1 µM, a TGI (RXF 393 renal) of 76.2 µM and a TGI (HOP-92 NSCLC) greater than 100 µM. For the same molecule, the TGI (SF-539 CNS) was 68.9 µM, the TGI (SF-268 CNS) was greater than 100 µM and the TGI (SN12C renal) was 27.9 µM. For the same molecule, the TGI (RPMI-8226 leukemia) was 23.3 µM, the TGI (M14 melanoma) was greater than 100 µM and the TGI (IGROV1 ovarian) was 24.2 µM. The TGI (DU-145 prostate) was 66.9 µM, the TGI (PC-3 prostate) was greater than 100 µM and the TGI (HT29 colon) was 85.3 µM. It also gave a TGI (CAKI-1 renal) greater than 100 µM, a TGI (A498 renal) of 16.6 µM and a TGI (CCRF-CEM leukemia) greater than 100 µM. The TGI (UACC-257 melanoma) was 54.7 µM, the TGI (A549 NSCLC) was 39.7 µM and the TGI (MCF7 breast) was 42.4 µM. The TGI (SK-MEL-2 melanoma) was 21.5 µM, the TGI (OVCAR-8 ovarian) was 29.3 µM and the TGI (BT-549 breast) was greater than 100 µM. For the same molecule, the TGI (K-562 leukemia) was 76.1 µM, the TGI (SK-MEL-28 melanoma) was greater than 100 µM and the TGI (NCI-H226 lung) was 85.6 µM. It also gave a TGI (MOLT-4 leukemia) of 11.4 µM, a TGI (NCI-H23 lung) of 46.9 µM and a TGI (HL-60(TB) leukemia) of 19.7 µM. The TGI (OVCAR-5 ovarian) was 69.7 µM, the TGI (KM12 colon) was 63 µM and the TGI (SW-620 colon) was greater than 100 µM. The TGI (NCI-H460 lung) was 27.4 µM, the TGI (NCI-H522 lung) was 26.5 µM and the TGI (HCT-15 colon) was 31.5 µM. For the same molecule, the TGI (NCI/ADR-RES ovarian) was greater than 100 µM, the TGI (OVCAR-4 ovarian) was greater than 100 µM and the TGI (SNB-19 CNS) was greater than 100 µM. The TGI (HCT-116 colon) was 57.3 µM, the TGI (MDA-MB-231 breast) was 31.4 µM and the TGI (UO-31 renal) was greater than 100 µM. For the same molecule, the TGI (ACHN renal) was 53.1 µM and the TGI (SR leukemia) was 76.2 µM.
`Cc1cc(C#N)c(Nc2ccc(F)cc2[N+](=O)[O-])s1` showed a TGI (SF-295 CNS) greater than 100 µM, a TGI (COLO 205 colon) greater than 100 µM and a TGI (MDA-N) greater than 100 µM. The TGI (SK-OV-3 ovarian) was greater than 100 µM, the TGI (U251 CNS) was greater than 100 µM and the TGI (UACC-62 melanoma) was greater than 100 µM. The TGI (EKVX NSCLC) was greater than 100 µM, the TGI (SNB-75 CNS) was greater than 100 µM and the TGI (HCC-2998 colon) was greater than 100 µM. The TGI (MALME-3M melanoma) was greater than 100 µM, the TGI (786-0 renal) was greater than 100 µM and the TGI (MDA-MB-435) was greater than 100 µM. The TGI (T-47D breast) was greater than 100 µM, the TGI (RXF 393 renal) was greater than 100 µM and the TGI (HOP-92 NSCLC) was 94.6 µM. It also gave a TGI (SF-539 CNS) greater than 100 µM, a TGI (SF-268 CNS) greater than 100 µM and a TGI (SN12C renal) greater than 100 µM. The TGI (RPMI-8226 leukemia) was greater than 100 µM, the TGI (M14 melanoma) was greater than 100 µM and the TGI (DU-145 prostate) was greater than 100 µM. The TGI (HOP-62 NSCLC) was greater than 100 µM, the TGI (PC-3 prostate) was greater than 100 µM and the TGI (CAKI-1 renal) was greater than 100 µM. The TGI (A498 renal) was greater than 100 µM, the TGI (CCRF-CEM leukemia) was greater than 100 µM and the TGI (UACC-257 melanoma) was greater than 100 µM. The TGI (A549 NSCLC) was greater than 100 µM, the TGI (OVCAR-8 ovarian) was greater than 100 µM and the TGI (BT-549 breast) was greater than 100 µM. For the same molecule, the TGI (K-562 leukemia) was greater than 100 µM, the TGI (SK-MEL-28 melanoma) was greater than 100 µM and the TGI (NCI-H226 lung) was greater than 100 µM. For the same molecule, the TGI (MOLT-4 leukemia) was greater than 100 µM, the TGI (NCI-H23 lung) was greater than 100 µM and the TGI (OVCAR-3 ovarian) was greater than 100 µM. For the same molecule, the TGI (OVCAR-5 ovarian) was greater than 100 µM, the TGI (KM12 colon) was greater than 100 µM and the TGI (SW-620 colon) was greater than 100 µM. For the same molecule, the TGI (NCI-H460 lung) was greater than 100 µM, the TGI (NCI-H522 lung) was greater than 100 µM and the TGI (HCT-15 colon) was greater than 100 µM. It also gave a TGI (NCI/ADR-RES ovarian) greater than 100 µM, a TGI (OVCAR-4 ovarian) greater than 100 µM and a TGI (SNB-19 CNS) greater than 100 µM. The TGI (HCT-116 colon) was greater than 100 µM, the TGI (MDA-MB-231 breast) was 68.8 µM and the TGI (UO-31 renal) was greater than 100 µM. For the same molecule, the TGI (ACHN renal) was greater than 100 µM and the TGI (SR leukemia) was greater than 100 µM.
